Results from ChEMBL document CHEMBL1138171, “5-Heteroatom-substituted pyrazoles as canine COX-2 inhibitors: Part 2. Structure-activity relationship studies of 5-alkylethers and 5-thioethers” (Bioorg Med Chem Lett, 2006).

Key:
[1] = molecular target: T1, Prostaglandin G/H synthase 1 (Canis lupus familiaris, UniProt Q8HZR1); test: Inhibition of COX1 by canine whole blood assay; format: tissue-based
T1 sequence (Q8HZR1 whole entry): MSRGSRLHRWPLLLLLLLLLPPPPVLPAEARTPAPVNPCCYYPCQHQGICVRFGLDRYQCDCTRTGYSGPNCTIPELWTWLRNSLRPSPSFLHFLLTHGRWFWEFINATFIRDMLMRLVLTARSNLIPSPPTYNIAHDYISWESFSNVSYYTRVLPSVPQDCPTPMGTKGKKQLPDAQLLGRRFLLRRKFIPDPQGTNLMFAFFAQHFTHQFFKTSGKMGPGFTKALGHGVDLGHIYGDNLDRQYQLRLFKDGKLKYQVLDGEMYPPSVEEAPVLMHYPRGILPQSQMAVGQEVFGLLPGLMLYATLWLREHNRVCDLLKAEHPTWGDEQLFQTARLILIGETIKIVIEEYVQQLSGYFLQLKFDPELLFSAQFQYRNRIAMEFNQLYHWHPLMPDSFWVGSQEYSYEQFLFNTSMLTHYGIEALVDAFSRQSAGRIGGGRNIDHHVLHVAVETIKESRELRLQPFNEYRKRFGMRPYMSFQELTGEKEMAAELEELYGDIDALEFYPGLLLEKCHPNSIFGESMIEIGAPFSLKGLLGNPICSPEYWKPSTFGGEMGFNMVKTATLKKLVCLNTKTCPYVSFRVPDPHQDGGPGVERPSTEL

[2] = molecular target: T2, Cyclooxygenase-2 (Canis lupus familiaris, UniProt Q8SPQ9)
T2 sequence (Q8SPQ9 whole entry): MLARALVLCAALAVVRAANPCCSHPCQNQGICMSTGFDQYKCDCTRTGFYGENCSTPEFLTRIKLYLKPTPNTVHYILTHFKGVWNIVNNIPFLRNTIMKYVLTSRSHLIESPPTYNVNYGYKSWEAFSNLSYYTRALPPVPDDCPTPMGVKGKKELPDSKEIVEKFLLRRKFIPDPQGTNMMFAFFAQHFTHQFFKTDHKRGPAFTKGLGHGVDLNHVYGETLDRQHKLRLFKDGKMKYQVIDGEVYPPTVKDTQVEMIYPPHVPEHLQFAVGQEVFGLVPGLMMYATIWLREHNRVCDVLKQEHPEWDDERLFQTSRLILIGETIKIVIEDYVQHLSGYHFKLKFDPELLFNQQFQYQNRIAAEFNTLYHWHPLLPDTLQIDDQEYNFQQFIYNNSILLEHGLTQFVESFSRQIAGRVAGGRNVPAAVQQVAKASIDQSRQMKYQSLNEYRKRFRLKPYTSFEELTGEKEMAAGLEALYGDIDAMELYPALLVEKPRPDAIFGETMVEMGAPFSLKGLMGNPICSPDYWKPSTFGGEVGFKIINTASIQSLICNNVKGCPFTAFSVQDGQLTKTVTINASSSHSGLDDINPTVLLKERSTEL
Description: Inhibition of COX2 by canine whole blood assay

[3] = species on record: Canis lupus familiaris; test: Selectivity for COX1 over COX2 by canine whole blood assay
[4] = system: Canis familiaris; test: AUC in Beagle dog at 2 mg/kg, po; format: ADME, organism-based, Canis lupus familiaris, Plasma; design: dose 2 mg/kg, route oral; conditions: in vivo
[5] = Half life in Beagle dog at 2 mg/kg, po; format: ADME, organism-based, Canis lupus familiaris; design: dose 2 mg/kg, route oral; conditions: in vivo
[6] = Cmax in Beagle dog at 2 mg/kg, po; format: ADME, organism-based, Canis lupus familiaris; design: dose 2 mg/kg, route oral; conditions: in vivo
[7] = Tmax in Beagle dog at 2 mg/kg, po; format: ADME, organism-based, Canis lupus familiaris; design: dose 2 mg/kg, route oral; conditions: in vivo
[8] = Cmax in Beagle dog at 5 mg/kg, po; format: ADME, organism-based, Canis lupus familiaris; design: dose 5 mg/kg, route oral; conditions: in vivo
[9] = Tmax in Beagle dog at 5 mg/kg, po; format: ADME, organism-based, Canis lupus familiaris; design: dose 5 mg/kg, route oral; conditions: in vivo
[10] = species on record: Canis familiaris; conditions: dog, in vivo, po, 5 mg/kg
Description: AUC in Beagle dog at 5 mg/kg, po

[11] = Half life in Beagle dog at 5 mg/kg, po; format: ADME, organism-based, Canis lupus familiaris; design: dose 5 mg/kg, route oral; conditions: in vivo

## CCC(Oc1c(C#N)c(C(F)(F)F)nn1-c1ccc(S(C)(=O)=O)cn1)C(C)C (stereo not drawn)
[1]
  IC50: > 50000 nM
[2]
  IC50: 170 nM
[3]
  Ratio: > 287

## CS(=O)(=O)c1ccc(-n2nc(C(F)(F)F)cc2OCc2ccncc2)nc1
[2]
  IC50: > 500 nM

## CS(=O)(=O)c1ccc(-n2nc(C(F)(F)F)c(C#N)c2Sc2ccccc2)nc1
[1]
  IC50: 200 nM
[2]
  IC50: 60 nM
[3]
  Ratio: 3.6

## CS(=O)(=O)c1ccc(-n2nc(C(F)(F)F)c(C#N)c2OC2CCCCCC2)nc1
[1]
  IC50: 8000 nM
[2]
  IC50: 70 nM
[3]
  Ratio: 117

## CS(=O)(=O)c1ccc(-n2nc(C(F)(F)F)cc2OCc2ccccc2)nc1
[2]
  IC50: > 500 nM

## CS(=O)(=O)c1ccc(-n2nc(C(F)(F)F)c(C#N)c2Oc2cccc3c2CCCC3)nc1
[1]
  IC50: 100 nM
[2]
  IC50: 900 nM
[3]
  Ratio: 0.1

## CCCCCSc1c(C#N)c(C(F)(F)F)nn1-c1ccc(S(C)(=O)=O)cn1
[1]
  IC50: 3500 nM
[2]
  IC50: 300 nM
[3]
  Ratio: 11.7

## Cc1cccc(Oc2c(C#N)c(C(F)(F)F)nn2-c2ccc(S(C)(=O)=O)cn2)c1C
[1]
  IC50: 100 nM
[2]
  IC50: 170 nM
[3]
  Ratio: 0.3

## CCCSc1c(C#N)c(C(F)(F)F)nn1-c1ccc(S(C)(=O)=O)cn1
[1]
  IC50: 200 nM
[2]
  IC50: < 50 nM
[3]
  Ratio: > 3.8

## CS(=O)(=O)c1ccc(-n2nc(C(F)(F)F)cc2OCc2cccc(F)c2)nc1
[2]
  IC50: > 500 nM

## CS(=O)(=O)c1ccc(-n2nc(C(F)(F)F)cc2OC2CCCC2)nc1
[2]
  IC50: > 500 nM

## CCCC(C)Oc1c(C#N)c(C(F)(F)F)nn1-c1ccc(S(C)(=O)=O)cn1 (stereo not drawn)
[2]
  IC50: > 500 nM

## CS(=O)(=O)c1ccc(-n2nc(C(F)(F)F)c(C#N)c2OC2CCOC2)nc1 (stereo not drawn)
[2]
  IC50: > 500 nM

## CC(C)Oc1c(Cl)c(C(F)(F)F)nn1-c1ccc(S(C)(=O)=O)cn1
[2]
  IC50: > 500 nM

## CC1CCCCC1Oc1c(C#N)c(C(F)(F)F)nn1-c1ccc(S(C)(=O)=O)cn1 (stereo not drawn)
[1]
  IC50: 7100 nM
[2]
  IC50: 200 nM
[3]
  Ratio: 35

## CS(=O)(=O)c1ccc(-n2nc(C(F)(F)F)cc2OC2CCCCC2)nc1
[2]
  IC50: > 500 nM

## CC(C)CCCSc1c(C#N)c(C(F)(F)F)nn1-c1ccc(S(C)(=O)=O)cn1
[1]
  IC50: 3300 nM
[2]
  IC50: 400 nM
[3]
  Ratio: 8.1

## CS(=O)(=O)c1ccc(-n2nc(C(F)(F)F)c(C#N)c2OC2CCC2)nc1
[1]
  IC50: 25300 nM
[2]
  IC50: 550 nM
[3]
  Ratio: 46.3

## CCOCCSc1c(C#N)c(C(F)(F)F)nn1-c1ccc(S(C)(=O)=O)cn1
[1]
  IC50: 2000 nM
[2]
  IC50: 170 nM
[3]
  Ratio: 11.8

## CS(=O)(=O)c1ccc(-n2nc(C(F)(F)F)c(C#N)c2OCC2CC=CCC2)nc1 (stereo not drawn)
[4]
  AUC: 742 ng·h/mL
[1]
  IC50: 10600 nM
[5]
  half-life: 2 h
[6]
  Cmax: 363 ng/mL
[2]
  IC50: 140 nM
[7]
  Tmax: 1 h
[3]
  Ratio: 78

## CC(C)Oc1cc(C(F)(F)F)nn1-c1ccc(S(C)(=O)=O)cn1
[8]
  Cmax: 679 ng/mL
[9]
  Tmax: 0.8 h
[2]
  IC50: > 500 nM
[10]
  AUC: 6980 ng·h/mL
[11]
  half-life: 34.8 h

## CC(C)COc1c(C#N)c(C(F)(F)F)nn1-c1ccc(S(C)(=O)=O)cn1
[1]
  IC50: 10000 nM
[2]
  IC50: 110 nM
[3]
  Ratio: 92

## COc1cc(C(F)(F)F)nn1-c1ccc(S(C)(=O)=O)cn1
[2]
  IC50: > 500 nM

## CC(C)COc1cc(C(F)(F)F)nn1-c1ccc(S(C)(=O)=O)cn1
[2]
  IC50: 4100 nM

## CC(C)C(C)Oc1c(C#N)c(C(F)(F)F)nn1-c1ccc(S(C)(=O)=O)cn1 (stereo not drawn)
[1]
  IC50: 11800 nM
[2]
  IC50: 90 nM
[3]
  Ratio: 127

## CS(=O)(=O)c1ccc(-n2nc(C(F)(F)F)cc2OCc2cccc3ccccc23)nc1
[2]
  IC50: > 500 nM

## CS(=O)(=O)c1ccc(-n2nc(C(F)(F)F)c(C#N)c2OCC2CCC2)nc1
[2]
  IC50: 80 nM

## CC1CCC(Oc2c(C#N)c(C(F)(F)F)nn2-c2ccc(S(C)(=O)=O)cn2)C1 (stereo not drawn)
[1]
  IC50: 7600 nM
[2]
  IC50: 160 nM
[3]
  Ratio: 47

## Cc1c(C(F)(F)F)nn(-c2ccc(S(C)(=O)=O)cn2)c1OC(C)C
[2]
  IC50: > 500 nM

## CS(=O)(=O)c1ccc(-n2nc(C(F)(F)F)c(C#N)c2SCc2ccccc2)nc1
[1]
  IC50: 900 nM
[2]
  IC50: 80 nM
[3]
  Ratio: 12.1

## CCC(C)Sc1c(C#N)c(C(F)(F)F)nn1-c1ccc(S(C)(=O)=O)cn1 (stereo not drawn)
[1]
  IC50: 1500 nM
[2]
  IC50: < 50 nM
[3]
  Ratio: > 29.5

## CCCCOc1cc(C(F)(F)F)nn1-c1ccc(S(C)(=O)=O)cn1
[2]
  IC50: > 500 nM

## CCC(CC)Oc1c(C)c(C(F)(F)F)nn1-c1ccc(S(C)(=O)=O)cn1
[2]
  IC50: > 500 nM

## C[C@@H]1CN(c2c(C#N)c(C(F)F)nn2-c2ccc(S(C)(=O)=O)cn2)C[C@H](C)O1
[4]
  AUC: 4830 ng·h/mL
[1]
  IC50: > 50000 nM
[2]
  IC50: 140 nM
[3]
  Ratio: > 357

## CS(=O)(=O)c1ccc(-n2nc(C(F)(F)F)c(C#N)c2OC2CCCC2)nc1
[2]
  IC50: 210 nM

## CS(=O)(=O)c1ccc(-n2nc(C(F)(F)F)cc2OCC2CC2)nc1
[2]
  IC50: > 500 nM

## CCC(CC)Oc1cc(C(F)(F)F)nn1-c1ccc(S(C)(=O)=O)cn1
[2]
  IC50: 19600 nM

## CCC(COC)Oc1c(C#N)c(C(F)(F)F)nn1-c1ccc(S(C)(=O)=O)cn1 (stereo not drawn)
[2]
  IC50: > 500 nM

## CS(=O)(=O)c1ccc(-n2nc(C(F)(F)F)c(C#N)c2SCc2ccccc2F)nc1
[1]
  IC50: 600 nM
[2]
  IC50: 40 nM
[3]
  Ratio: 18.4

## C=C1CCC(COc2c(C#N)c(C(F)(F)F)nn2-c2ccc(S(C)(=O)=O)cn2)CC1
[1]
  IC50: 29700 nM
[2]
  IC50: < 90 nM
[3]
  Ratio: 340

## CCC(CC)Oc1c(C#N)c(C(F)(F)F)nn1-c1ccc(S(C)(=O)=O)cn1
[2]
  IC50: < 500 nM

## CS(=O)(=O)c1ccc(-n2nc(C(F)(F)F)c(C#N)c2Oc2ccccc2)nc1
[2]
  IC50: > 500 nM

## CS(=O)(=O)c1ccc(-n2nc(C(F)(F)F)c(C#N)c2OCC2CCCC2)nc1
[1]
  IC50: 400 nM
[2]
  IC50: 60 nM
[3]
  Ratio: 6.8

## CS(=O)(=O)c1ccc(-n2nc(C(F)(F)F)c(C#N)c2SC2CCCCC2)nc1
[1]
  IC50: 3200 nM
[2]
  IC50: 100 nM
[3]
  Ratio: 31.2

## Cc1c(C(F)(F)F)nn(-c2ccc(S(C)(=O)=O)cn2)c1OCC(C)C
[2]
  IC50: > 500 nM
